For 1 compound, Osmolality results are on record in US11590105B2, “Intrathecal administration of levetiracetam” (Sintetica S.A., priority 2019, dated 2023).

This series in a line: Osmolality of various concentrations of levetiracetam in water. In kind it is physicochemical. An excerpt:
Sodium chloride and other halide salts that affect the tonicity of the solution are preferably omitted from the formulations and unnecessary because levetiracetam itself yields an isotonic (or slightly above isotonic) formulation in the formulations of the present invention. The following table gives the osmolality of various concentrations of levetiracetam in water: […]

In turn, `CC[C@@H](C(N)=O)N1CCCC1=O` [Levetiracetam, (−)-(S)-α-ethyl-2-oxo-1-pyrrolidine acetamide] had an Osmolality (levetiracetam conc. 2.75 mg/ml in water) of 16 mOsm/kg; an Osmolality (levetiracetam conc. 45 mg/ml in water) of 262 mOsm/kg; an Osmolality (levetiracetam conc. 50 mg/ml in water) of 292 mOsm/kg; an Osmolality (levetiracetam conc. 60 mg/ml in water) of 348 mOsm/kg; an Osmolality (levetiracetam conc. 65 mg/ml in water) of 377 mOsm/kg.
